Source: patent US20220133957A1, “Sclerostin Inhibitors That Promote Bone Morphogenetic Protein Expression” (Emory University, priority 2019, published 2022)

T1: sclerostin and LRP5 interaction (Homo sapiens, UniProt Q9BQB4)
T1 sequence (Q9BQB4 24-213): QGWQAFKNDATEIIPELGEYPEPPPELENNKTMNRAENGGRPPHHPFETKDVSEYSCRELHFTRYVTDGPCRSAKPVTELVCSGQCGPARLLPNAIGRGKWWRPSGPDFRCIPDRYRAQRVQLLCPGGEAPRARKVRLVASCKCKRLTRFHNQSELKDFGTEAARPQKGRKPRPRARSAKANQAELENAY

B1: BMP2: bone morphogenetic protein 2, growth factor used to treat cells (protein, listed as Homo sapiens)
chain: MVAGTRCLLALLLPQVLLGGAAGLVPELGRRKFAAASSGRPSSQPSDEVLSEFELRLLSMFGLKQRPTPSRDAVVPPYMLDLYRRHSGQPGSPAPDHRLERAASRANTVRSFHHEESLEELPETSGKTTRRFFFNLSSIPTEEFITSAELQVFREQMQDALGNNSSFHHRINIYEIIKPATANSKFPVTRLLDTRLVNQNASRWESFDVTPAVMRWTAQGHANHGFVVEVAHLEEKQGVSKRHVRISRSLHQDEHSWSQIRPLLVTFGHDGKGHPLHKREKRQAKHKQRKRLKSSCKRHPLYVDFSDVGWNDWIVAPPGYHAFYCHGECPFPLADHLNSTNHAIVQTLVNSVNSKIPKACCVPTELSAISMLYLDENEKVVLKNYQDMVVEGCGCR

What was measured:
[1] = test system: rabbit posterolateral spine fusion; test: rabbit model of posterolateral lumbar arthrodesis (spinal fusion); type: in vivo; conditions: for spinal fusion rates compared to controls: 300 mM; for spinal fusion rates compared to controls / spines successfully fused: 6 weeks; for spines successfully fused: 500 mM as standalone drug on plain collagen sponge without ICBG; for posterolateral spine fusion rate: 500 mM in combination with autologous iliac crest bone graft (ICBG), 6 weeks after arthrodesis
Description: Coronal μCT reconstructions of rabbit spines 6 weeks following posterolateral spine arthrodesis are shown.
C07 and VA1 were assessed for their ability to enhance spinal fusion rates in vivo using a validated rabbit model of posterolateral lumbar arthrodesis. Both were tested as standalone osteoinductive drugs, as well as in combination with autologous ICBG, using two separate doses (300 and 500 mM). All rabbits were euthanized six weeks following arthrodesis surgery and the spine fusion masses were assessed by both plain radiography and μCT. Successful fusion, defined as continuous bridging bone between the TPs, was assessed by two spine surgeons.

Sprague-Dawley rats = test: in vivo subcutaneous ectopic mineralization model (collagen sponge implant); set-up: species or system rat; conditions: 4 weeks; for dose-response of ectopic mineralization: 10, 25, 50, 75 and 100 mM on collagen sponge; for de novo ectopic mineralization: standalone agent on plain collagen sponge, 0-100 mM, subcutaneous on chest
Description: Compound was delivered in 100 uL at indicated concentration for each collagen disc in DMSO solvent before subcutaneous implantation.
Sclerostin inhibitors were tested in a challenging in vivo subcutaneous ectopic mineralization model. Other than the osteoinductive BMPs, few if any proteins or small molecules are capable of inducing de novo ectopic mineralization in this rat model. Sclerostin inhibitors were loaded individually as standalone agents onto a plain collagen sponge (DSM) at 0, 10, 25, 50, 75, and 100 mM and then surgically implanted subcutaneously on the chest of 6-week-old male Sprague-Dawley rats for 4 weeks. A positive control of 10 μg of recombinant BMP-2 was also tested.

[2] = test system: AXIN2, Wnt1 and SOST mRNA; test: BMP-2-induced marker gene expression in Wnt pathway (mRNA levels) in MC3T3 cells; type: cell-based; conditions: 10 uM compound, BMP-2 35 ng/ml, MC3T3 cells treated for 48 hrs
[3] = biological target: T1, sclerostin and LRP5 interaction; test: in vitro binding assay with purified recombinant sclerostin and LRP5 proteins (125-Iodine-labeled sclerostin, biotin-labeled LRP5 pull-down); conditions: 0.1 ug biotin-labeled LRP5, 20,000 cpm 125-Iodine-labeled sclerostin, 30 min at room temperature
Description: (§1) To ensure that sclerostin was in fact being expressed in cell lines, we tested C2C12, MSC and MC3T3 cell lines. Western blots were performed using anti-sclerostin mAbs both with and without BMP-2 treatment. […] Sclerostin and LRP5 was labeled with 125-Iodine and biotin, respectively. Constant amounts of biotin-labeled LRP5 (0.1 ug) and 125-Iodine-labeled sclerostin (20,000 cpm) were incubated with or without varying concentrations of unlabeled-sclerostin+/−various concentrations of compounds for 30 min at room temperature in a 100 uL assay buffer. Biotin-labeled LRP5 was pulled down with a 20 uL slurry of neutravidin-agarose beads. The counts associated with pellets were counted in a Beckman 4000 Gamma counter. Unlabeled sclerostin competed off about 90% of labeled-sclerostin.

[4] = biological target: purified recombinant LRP5; test: radioligand competition pull-down: 125I-sclerostin and biotin-LRP5, neutravidin-agarose beads, gamma counting; competitor unlabeled sclerostin
Sclerostin protein = test: Western blots using anti-sclerostin mAbs with and without BMP-2 treatment; type: cell-based; conditions: C2C12, MSC and MC3T3 cell lines
Description: as §1

Molecule	spinal fusion rates compared to controls [1]	spines successfully fused [1] [%]	posterolateral spine fusion rate [1] [%]	dose-response of ectopic mineralization (Sprague-Dawley rats)	de novo ectopic mineralization (Sprague-Dawley rats)	BMP-induced mRNA levels of AXIN2, Wnt1 and SOST compared to BMP-2 alone control [2]	further results
N#Cc1ccc(NCCNc2ncccn2)nc1 [Compound C07, 6-((2-(pyrimidin-2-ylamino)ethyl)amino)nicotinonitrile]	Neither VA1 nor C07 at 300 mM showed any increase	33	85	clearer dose-response	significant de novo ectopic mineralization	elevation	
CCCC(CCC)C(=O)O [VA1, valproic acid]	Neither VA1 nor C07 at 300 mM showed any increase	17	80	lack of a clear dose-response	significant de novo ectopic mineralization	elevation	
Unlabeled sclerostin: purified recombinant sclerostin protein, unlabeled competitor in the LRP5 binding assay							labeled-sclerostin competed off [3]: about 90%
purified recombinant sclerostin (ligand)							percent of labeled sclerostin competed off [4]: 90%
B1							Sclerostin protein levels (Sclerostin protein): increased protein levels
